PubChem BioAssay (NCI)
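Following 48 hours of exposure in 96-well plates, responses at five concentrations were used to interpolate endpoints linearly. GI50: concentration for 50% inhibition of growth. TGI denotes the concentration required for complete inhibition of growth.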

Assays:
Assay in all cases: growth of human tumour cells (NCI), 48 h
786-0 renal = tested on: 786-0 renal
A498 renal = tested on: A498 renal
A549 NSCLC = tested on: A549 NSCLC
ACHN renal = tested on: ACHN renal
BT-549 breast = tested on: BT-549 breast
CAKI-1 renal = tested on: CAKI-1 renal
CCRF-CEM leukemia = tested on: CCRF-CEM leukemia
COLO 205 colon = tested on: COLO 205 colon
DU-145 prostate = tested on: DU-145 prostate
EKVX NSCLC = tested on: EKVX NSCLC
HCT-116 colon = tested on: HCT-116 colon
HCT-15 colon = tested on: HCT-15 colon
HL-60(TB) leukemia = tested on: HL-60(TB) leukemia
HOP-62 NSCLC = tested on: HOP-62 NSCLC
HOP-92 NSCLC = tested on: HOP-92 NSCLC
HS 578T breast = tested on: HS 578T breast
HT29 colon = tested on: HT29 colon
IGROV1 ovarian = tested on: IGROV1 ovarian
K-562 leukemia = tested on: K-562 leukemia
KM12 colon = tested on: KM12 colon
LOX IMVI melanoma = tested on: LOX IMVI melanoma
M14 melanoma = tested on: M14 melanoma
MALME-3M melanoma = tested on: MALME-3M melanoma
MCF7 breast = tested on: MCF7 breast
MDA-MB-231 breast = tested on: MDA-MB-231 breast
MDA-MB-435 = tested on: MDA-MB-435
MOLT-4 leukemia = tested on: MOLT-4 leukemia
NCI-H226 lung = tested on: NCI-H226 lung
NCI-H23 lung = tested on: NCI-H23 lung
NCI-H460 lung = tested on: NCI-H460 lung
NCI-H522 lung = tested on: NCI-H522 lung
NCI/ADR-RES ovarian = tested on: NCI/ADR-RES ovarian
OVCAR-3 ovarian = tested on: OVCAR-3 ovarian
OVCAR-4 ovarian = tested on: OVCAR-4 ovarian
OVCAR-5 ovarian = tested on: OVCAR-5 ovarian
OVCAR-8 ovarian = tested on: OVCAR-8 ovarian
PC-3 prostate = tested on: PC-3 prostate
RPMI-8226 leukemia = tested on: RPMI-8226 leukemia
RXF 393 renal = tested on: RXF 393 renal
SF-268 CNS = tested on: SF-268 CNS
SF-295 CNS = tested on: SF-295 CNS
SF-539 CNS = tested on: SF-539 CNS
SK-MEL-2 melanoma = tested on: SK-MEL-2 melanoma
SK-MEL-28 melanoma = tested on: SK-MEL-28 melanoma
SK-MEL-5 melanoma = tested on: SK-MEL-5 melanoma
SK-OV-3 ovarian = tested on: SK-OV-3 ovarian
SN12C renal = tested on: SN12C renal
SNB-19 CNS = tested on: SNB-19 CNS
SNB-75 CNS = tested on: SNB-75 CNS
SR leukemia = tested on: SR leukemia
SW-620 colon = tested on: SW-620 colon
T-47D breast = tested on: T-47D breast
TK-10 renal = tested on: TK-10 renal
U251 CNS = tested on: U251 CNS
UACC-257 melanoma = tested on: UACC-257 melanoma
UACC-62 melanoma = tested on: UACC-62 melanoma
UO-31 renal = tested on: UO-31 renal

O=[N+]([O-])c1cc([N+](=O)[O-])c(NN=C(c2ccc(O)cc2)c2ccc(O)cc2)cc1Cl gave a GI50 (786-0 renal) of 2150 nM, a TGI (786-0 renal) of 4260 nM and a GI50 (A498 renal) of 2020 nM. It also gave a TGI (A498 renal) of 3640 nM, a GI50 (A549 NSCLC) of 2840 nM and a TGI (A549 NSCLC) of 6590 nM. For the same compound, the GI50 (ACHN renal) was 1880 nM, the TGI (ACHN renal) was 3450 nM and the GI50 (BT-549 breast) was 2080 nM. The TGI (BT-549 breast) was 4460 nM, the GI50 (CAKI-1 renal) was 1700 nM and the TGI (CAKI-1 renal) was 3340 nM. It also gave a GI50 (CCRF-CEM leukemia) of 716 nM, a TGI (CCRF-CEM leukemia) of 2290 nM and a GI50 (COLO 205 colon) of 2400 nM. It also gave a TGI (COLO 205 colon) of 5310 nM, a GI50 (DU-145 prostate) of 1140 nM and a TGI (DU-145 prostate) of 2640 nM. For the same compound, the GI50 (EKVX NSCLC) was 2330 nM, the TGI (EKVX NSCLC) was 5100 nM and the GI50 (HCT-116 colon) was 1230 nM. For the same compound, the TGI (HCT-116 colon) was 3110 nM, the GI50 (HCT-15 colon) was 407 nM and the TGI (HCT-15 colon) was 1520 nM. It also gave a GI50 (HL-60(TB) leukemia) of 684 nM, a TGI (HL-60(TB) leukemia) of 2420 nM and a GI50 (HOP-62 NSCLC) of 2440 nM. The TGI (HOP-62 NSCLC) was 4990 nM, the GI50 (HOP-92 NSCLC) was 463 nM and the TGI (HOP-92 NSCLC) was 2480 nM. For the same compound, the GI50 (HS 578T breast) was 742 nM, the TGI (HS 578T breast) was 2040 nM and the GI50 (HT29 colon) was 1540 nM. The TGI (HT29 colon) was 4070 nM, the GI50 (IGROV1 ovarian) was 449 nM and the TGI (IGROV1 ovarian) was 1570 nM. For the same compound, the GI50 (K-562 leukemia) was 4890 nM, the TGI (K-562 leukemia) was > 100000 nM and the GI50 (KM12 colon) was 1830 nM. The TGI (KM12 colon) was 3730 nM, the GI50 (LOX IMVI melanoma) was 409 nM and the TGI (LOX IMVI melanoma) was 1600 nM. For the same compound, the GI50 (M14 melanoma) was 1830 nM, the TGI (M14 melanoma) was 3940 nM and the GI50 (MALME-3M melanoma) was 1970 nM. The TGI (MALME-3M melanoma) was 3980 nM, the GI50 (MCF7 breast) was 1370 nM and the TGI (MCF7 breast) was 3300 nM. The GI50 (MDA-MB-231 breast) was 1740 nM, the TGI (MDA-MB-231 breast) was 3290 nM and the GI50 (MDA-MB-435) was 1820 nM. It also gave a TGI (MDA-MB-435) of 3600 nM, a GI50 (MOLT-4 leukemia) of 832 nM and a TGI (MOLT-4 leukemia) of 3110 nM. It also gave a GI50 (NCI-H226 lung) of 2010 nM, a TGI (NCI-H226 lung) of 3840 nM and a GI50 (NCI-H23 lung) of 1980 nM. The TGI (NCI-H23 lung) was 4450 nM, the GI50 (NCI-H460 lung) was 1920 nM and the TGI (NCI-H460 lung) was 4000 nM. It also gave a GI50 (NCI-H522 lung) of 2000 nM, a TGI (NCI-H522 lung) of 4220 nM and a GI50 (NCI/ADR-RES ovarian) of 1890 nM. For the same compound, the TGI (NCI/ADR-RES ovarian) was 3890 nM, the GI50 (OVCAR-3 ovarian) was 912 nM and the TGI (OVCAR-3 ovarian) was 2240 nM. For the same compound, the GI50 (OVCAR-4 ovarian) was 1400 nM, the TGI (OVCAR-4 ovarian) was 2950 nM and the GI50 (OVCAR-5 ovarian) was 2200 nM. For the same compound, the TGI (OVCAR-5 ovarian) was 4150 nM, the GI50 (OVCAR-8 ovarian) was 1790 nM and the TGI (OVCAR-8 ovarian) was 4600 nM. For the same compound, the GI50 (PC-3 prostate) was 813 nM, the TGI (PC-3 prostate) was 2330 nM and the GI50 (RPMI-8226 leukemia) was 1980 nM. The TGI (RPMI-8226 leukemia) was 4070 nM, the TGI (RXF 393 renal) was 350 nM and the GI50 (SF-268 CNS) was 1700 nM. For the same compound, the TGI (SF-268 CNS) was 3290 nM, the GI50 (SF-295 CNS) was 1840 nM and the TGI (SF-295 CNS) was 3650 nM. For the same compound, the GI50 (SF-539 CNS) was 1750 nM, the TGI (SF-539 CNS) was 3130 nM and the GI50 (SK-MEL-2 melanoma) was 3060 nM. The TGI (SK-MEL-2 melanoma) was 10600 nM, the GI50 (SK-MEL-28 melanoma) was 685 nM and the TGI (SK-MEL-28 melanoma) was 1730 nM. For the same compound, the GI50 (SK-MEL-5 melanoma) was 1470 nM, the TGI (SK-MEL-5 melanoma) was 2910 nM and the GI50 (SK-OV-3 ovarian) was 2040 nM. For the same compound, the TGI (SK-OV-3 ovarian) was 4150 nM, the GI50 (SN12C renal) was 1780 nM and the TGI (SN12C renal) was 3360 nM. It also gave a GI50 (SNB-19 CNS) of 366 nM, a TGI (SNB-19 CNS) of 2300 nM and a GI50 (SNB-75 CNS) of 1440 nM. For the same compound, the TGI (SNB-75 CNS) was 3080 nM, the GI50 (SR leukemia) was 1680 nM and the GI50 (SW-620 colon) was 348 nM. The TGI (SW-620 colon) was 1220 nM, the GI50 (T-47D breast) was 572 nM and the TGI (T-47D breast) was 2120 nM. For the same compound, the GI50 (TK-10 renal) was 2260 nM, the TGI (TK-10 renal) was 4660 nM and the GI50 (U251 CNS) was 1870 nM. It also gave a TGI (U251 CNS) of 3550 nM, a GI50 (UACC-257 melanoma) of 2170 nM and a TGI (UACC-257 melanoma) of 3890 nM. It also gave a GI50 (UACC-62 melanoma) of 1760 nM, a TGI (UACC-62 melanoma) of 3280 nM and a GI50 (UO-31 renal) of 1760 nM. The TGI (UO-31 renal) was 3390 nM.
